Experimental data taken from PubChem BioAssay AID2060493 (Molecular Pharmacology Branch, DTP, NCI, 2025).

System: 616215-338-R-J1-PDC tumor spheroids, viability
Experiment: Anticancer human tumor 616215-338-R-J1-PDC patient-derived colon adenocarcinoma cell line growth inhibition [GQUAD]
Details: spheroids with HUVEC and MSC; for IC50: curve of first compound; for viability, T/C: stronger effect = lower value
Outline: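 Multi-cell-type spheroids of tumor cells with HUVEC and mesenchymal stem cells, treated with drug combinations. Concentrations descend in half-log steps from near clinical Cmax, or from 10 microM where Cmax is unknown; viability read-out.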

[1] = second compound 0.0316 µM, first compound 0.0316 µM
[2] = second compound 0.0316 µM, first compound 0.1 µM
[3] = second compound 0.0316 µM, first compound 0.316 µM
[4] = second compound 0.0316 µM, first compound 1 µM
[5] = second compound 0.0316 µM, first compound 3.16 µM
[6] = second compound 0.0316 µM, first compound 10 µM
[7] = second compound 0.1 µM, first compound 0.0316 µM
[8] = second compound 0.1 µM, first compound 0.1 µM
[9] = second compound 0.1 µM, first compound 0.316 µM
[10] = second compound 0.1 µM, first compound 1 µM
[11] = second compound 0.1 µM, first compound 3.16 µM
[12] = second compound 0.1 µM, first compound 10 µM
[13] = second compound 0.316 µM, first compound 0.0316 µM
[14] = second compound 0.316 µM, first compound 0.1 µM
[15] = second compound 0.316 µM, first compound 0.316 µM
[16] = second compound 0.316 µM, first compound 1 µM
[17] = second compound 0.316 µM, first compound 3.16 µM
[18] = second compound 0.316 µM, first compound 10 µM
[19] = second compound 1 µM, first compound 0.0316 µM
[20] = second compound 1 µM, first compound 0.1 µM
[21] = second compound 1 µM, first compound 0.316 µM
[22] = second compound 1 µM, first compound 1 µM
[23] = second compound 1 µM, first compound 3.16 µM
[24] = second compound 1 µM, first compound 10 µM
[25] = second compound 3.16 µM, first compound 0.0316 µM
[26] = second compound 3.16 µM, first compound 0.1 µM
[27] = second compound 3.16 µM, first compound 0.316 µM
[28] = second compound 3.16 µM, first compound 1 µM
[29] = second compound 3.16 µM, first compound 3.16 µM
[30] = second compound 3.16 µM, first compound 10 µM
[31] = second compound 10 µM, first compound 0.0316 µM
[32] = second compound 10 µM, first compound 0.1 µM
[33] = second compound 10 µM, first compound 0.316 µM
[34] = second compound 10 µM, first compound 1 µM
[35] = second compound 10 µM, first compound 3.16 µM
[36] = second compound 10 µM, first compound 10 µM
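Further: spheroids exposed to agents for 7 days before readout.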
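Wherever viability, T/C is given: percent viability relative to DMSO vehicle control wells taken as 100%.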

O=C(c1cc(Cc2n[nH]c(=O)c3ccccc23)ccc1F)N1CCN(C(=O)C2CC2)CC1 + CN(C)c1ccc(Nc2c3ccc(NC(=O)CCN4CCCC4)cc3nc3cc(NC(=O)CCN4CCCC4)ccc23)cc1
IC50 (second compound 0.0316 µM): > 10 µM | IC50 (second compound 0.1 µM): > 10 µM | IC50 (second compound 0.316 µM): > 10 µM | IC50 (second compound 1 µM): > 10 µM | IC50 (second compound 3.16 µM): > 10 µM | IC50 (second compound 10 µM): > 10 µM | viability, T/C [1]: 100% | viability, T/C [2]: 95.7% | viability, T/C [3]: 103% | viability, T/C [4]: 111% | viability, T/C [5]: 110% | viability, T/C [6]: 71.9% | viability, T/C [7]: 103% | viability, T/C [8]: 102% | viability, T/C [9]: 104% | viability, T/C [10]: 103% | viability, T/C [11]: 111% | viability, T/C [12]: 74.8% | viability, T/C [13]: 104% | viability, T/C [14]: 114% | viability, T/C [15]: 112% | viability, T/C [16]: 106% | viability, T/C [17]: 99.3% | viability, T/C [18]: 68.6% | viability, T/C [19]: 108% | viability, T/C [20]: 100% | viability, T/C [21]: 96.9% | viability, T/C [22]: 97.3% | viability, T/C [23]: 104% | viability, T/C [24]: 69% | viability, T/C [25]: 112% | viability, T/C [26]: 97.8% | viability, T/C [27]: 98.8% | viability, T/C [28]: 109% | viability, T/C [29]: 105% | viability, T/C [30]: 57.4% | viability, T/C [31]: 96.6% | viability, T/C [32]: 82.9% | viability, T/C [33]: 99.3% | viability, T/C [34]: 99.6% | viability, T/C [35]: 67% | viability, T/C [36]: 54.9%

Nc1ccn(C2OC(CO)C(O)C2(F)F)c(=O)n1 (centres undefined) + CN(C)c1ccc(Nc2c3ccc(NC(=O)CCN4CCCC4)cc3nc3cc(NC(=O)CCN4CCCC4)ccc23)cc1
IC50 (second compound 0.0316 µM): < 0.0316 µM | IC50 (second compound 0.1 µM): < 0.0316 µM | IC50 (second compound 0.316 µM): < 0.0316 µM | IC50 (second compound 1 µM): < 0.0316 µM | IC50 (second compound 3.16 µM): < 0.0316 µM | IC50 (second compound 10 µM): < 0.0316 µM | viability, T/C [1]: 39.4% | viability, T/C [2]: 18.3% | viability, T/C [3]: 11.6% | viability, T/C [4]: 9.94% | viability, T/C [5]: 10.2% | viability, T/C [6]: 11.1% | viability, T/C [7]: 39.2% | viability, T/C [8]: 14.7% | viability, T/C [9]: 12% | viability, T/C [10]: 9.37% | viability, T/C [11]: 10.9% | viability, T/C [12]: 8.91% | viability, T/C [13]: 43.8% | viability, T/C [14]: 20.2% | viability, T/C [15]: 11.3% | viability, T/C [16]: 7.36% | viability, T/C [17]: 8.69% | viability, T/C [18]: 10.9% | viability, T/C [19]: 34.6% | viability, T/C [20]: 19.2% | viability, T/C [21]: 9.69% | viability, T/C [22]: 9.64% | viability, T/C [23]: 11.7% | viability, T/C [24]: 14.1% | viability, T/C [25]: 45.3% | viability, T/C [26]: 26% | viability, T/C [27]: 12.3% | viability, T/C [28]: 8.37% | viability, T/C [29]: 11.2% | viability, T/C [30]: 9.17% | viability, T/C [31]: 30.2% | viability, T/C [32]: 19.6% | viability, T/C [33]: 7.93% | viability, T/C [34]: 6.14% | viability, T/C [35]: 8.89% | viability, T/C [36]: 8.2%
